This note sets out measurements from PubChem BioAssay (NCI).

Where “and” joins values, the source holds several entries; their conditions need not be identical. Equal entries are not always repeated.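 Five concentrations, 48 hours, 96-well plates. Here, GI50 denotes the concentration required for 50% inhibition of growth. TGI: total growth inhibition.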

The test system of the first assay is A549 NSCLC. Description: inhibition of tumour cell growth, NCI panel, 48 h.
Consider `O=C1/C(=C/c2ccc([N+](=O)[O-])cc2)COc2ccc(O)cc21`, for which the GI50 is 78 µM and the TGI is above 100 µM.

With `CC(C)Oc1ccc(C(=O)Cn2ccnc2)cc1-n1c(CN2CCN(C(=O)COc3ccc(Cl)cc3)CC2)nc2ccccc2c1=O`, the GI50 is 18.4 µM and the TGI was above 72.1 µM.

On to `COc1cccc(COc2cc(-n3cnc4ccccc43)sc2C(N)=O)c1`, for which the GI50 is above 21.7 µM and the TGI was above 25 µM.

As for `CCN(CC)c1ccc(/C=C/C2=[N+](C)c3ccccc3C2(C)C)c(C)c1`, the GI50 is 0.0964 µM and the TGI is 14.1 µM.

For the compound `C=C1C(=O)C23C(O)C1CC[C@H]2C12CCCC(C)(COC(C)=O)[C@H]1[C@H](O)[C@]3(O)OC2` (stereo not given in full), the TGI is 9.95 µM.

`O=C(c1cccs1)C1NO[N+]([O-])=C1c1cccs1` (stereo not given): the GI50 is 9.89 µM and the TGI amounted to 34.4 µM.

`CN1c2ccccc2SC2C(c3ccccc3)=NOC21` (stereo not given): the TGI is above 100 µM.

Turning to `COc1ccc(C2=C(N3CCc4ccccc43)C(=O)NC2=O)cc1`, the GI50 is above 25 µM and the TGI is above 25 µM.

For `O=[N+]([O-])c1ccc(-c2cc3c(Nc4ccc(Cl)c(C(F)(F)F)c4)ncnc3s2)cc1`, the GI50 is 1.38 µM and the TGI was above 100 µM.

Consider `Cc1cc2c(cc1Cl)S/C(=C/C(=O)O)C(Nc1cccc3nsnc13)=NS2(=O)=O`, for which the GI50 was above 51 µM and the TGI is above 81.3 µM.

On to `COc1ccc(F)c(F)c1C(=O)c1cnc(NC2CCN(S(C)(=O)=O)CC2)nc1N`, for which the GI50 was 0.422 µM and 0.397 µM; the TGI is above 26.5 µM.

`Nc1cc(-c2ccc(Cl)cc2)nn1-c1nnc(/C=C/c2ccco2)c(=O)[nH]1`: the GI50 was 3.46 µM and the TGI is 22.2 µM.

Take `Cc1c(C)c(CC(=O)N2CC2)c(C)c(C)c1CC(=O)N1CC1`: the TGI is 50.3 µM.

Turning to `O=C1c2ccccc2-c2c1c1c(NCCCO)nc3ccccc3c1n2Cc1ccccc1`, the GI50 is 29.7 µM and the TGI was determined as 75.5 µM.

Turning to `CCCCCCCCCCCCCCCCCCOCC(COCCOCC[N+]1(CCCCCC(=O)[O-])CCCC1)Oc1ncccn1` (stereo not given), the TGI was 20 µM.

As to `CCOc1ccc(Nc2c3ccccc3nc3ccccc23)cc1`, the GI50 is 0.734 µM and 0.887 µM; the TGI is 9.63 µM and 12.5 µM.

For another assay, the system named is DU-145 prostate. Description: inhibition of tumour cell growth, NCI panel, 48 h.
With `O=C1/C(=C/c2ccc([N+](=O)[O-])cc2)COc2ccc(O)cc21`, the GI50 was 13.5 µM and the TGI is above 100 µM.

As to `CC(C)Oc1ccc(C(=O)Cn2ccnc2)cc1-n1c(CN2CCN(C(=O)COc3ccc(Cl)cc3)CC2)nc2ccccc2c1=O`, the GI50 was 9.59 µM and the TGI was above 100 µM.

Regarding `COc1cccc(COc2cc(-n3cnc4ccccc43)sc2C(N)=O)c1`, the GI50 was above 10.3 µM and the TGI was above 25 µM.

For the compound `CCN(CC)c1ccc(/C=C/C2=[N+](C)c3ccccc3C2(C)C)c(C)c1`, the GI50 was 0.0985 µM and the TGI came out at 11.6 µM.

Consider `C=C1C(=O)C23C(O)C1CC[C@H]2C12CCCC(C)(COC(C)=O)[C@H]1[C@H](O)[C@]3(O)OC2` (stereo not given in full), for which the TGI was determined as 16.2 µM.

Take `O=C(c1cccs1)C1NO[N+]([O-])=C1c1cccs1` (stereo not given): the GI50 was 3.76 µM and the TGI is 10.7 µM.

The compound `CN1c2ccccc2SC2C(c3ccccc3)=NOC21` (stereo not given) yielded a TGI above 100 µM.

Consider `COc1ccc(C2=C(N3CCc4ccccc43)C(=O)NC2=O)cc1`, for which the GI50 is above 25 µM and the TGI was above 25 µM.

Take `O=[N+]([O-])c1ccc(-c2cc3c(Nc4ccc(Cl)c(C(F)(F)F)c4)ncnc3s2)cc1`: the GI50 was 1.63 µM and the TGI is above 100 µM.

Consider `Cc1cc2c(cc1Cl)S/C(=C/C(=O)O)C(Nc1cccc3nsnc13)=NS2(=O)=O`, for which the GI50 was above 16 µM and the TGI was above 57.3 µM.

In the case of `COc1ccc(F)c(F)c1C(=O)c1cnc(NC2CCN(S(C)(=O)=O)CC2)nc1N`, the GI50 was 1.7 µM and 0.623 µM; the TGI is above 71.2 µM.

Regarding `Nc1cc(-c2ccc(Cl)cc2)nn1-c1nnc(/C=C/c2ccco2)c(=O)[nH]1`, the GI50 is 4.5 µM and the TGI came out at 28.2 µM.

As to `Cc1c(C)c(CC(=O)N2CC2)c(C)c(C)c1CC(=O)N1CC1`, the TGI worked out at 15.8 µM.

For the compound `O=C1c2ccccc2-c2c1c1c(NCCCO)nc3ccccc3c1n2Cc1ccccc1`, the GI50 was 16.3 µM and the TGI came out at 34.1 µM.

Compound `CCCCCCCCCCCCCCCCCCOCC(COCCOCC[N+]1(CCCCCC(=O)[O-])CCCC1)Oc1ncccn1` (stereo not given) had a TGI of 27.2 µM.

In the case of `CCOc1ccc(Nc2c3ccccc3nc3ccccc23)cc1`, the GI50 is 0.843 µM and 1.01 µM; the TGI was 9.34 µM and 6.59 µM.

For another assay, the system named is EKVX NSCLC. Nature of the assay: inhibition of tumour cell growth, NCI panel, 48 h.
Take `O=C1/C(=C/c2ccc([N+](=O)[O-])cc2)COc2ccc(O)cc21`: the GI50 is 42.7 µM and the TGI is above 100 µM.

As to `CC(C)Oc1ccc(C(=O)Cn2ccnc2)cc1-n1c(CN2CCN(C(=O)COc3ccc(Cl)cc3)CC2)nc2ccccc2c1=O`, the GI50 was 16.5 µM and the TGI is 97 µM.

Consider `COc1cccc(COc2cc(-n3cnc4ccccc43)sc2C(N)=O)c1`, for which the GI50 is above 25 µM and the TGI is above 25 µM.

Take `CCN(CC)c1ccc(/C=C/C2=[N+](C)c3ccccc3C2(C)C)c(C)c1`: the GI50 was 0.0466 µM and the TGI was determined as 7.86 µM.

Turning to `C=C1C(=O)C23C(O)C1CC[C@H]2C12CCCC(C)(COC(C)=O)[C@H]1[C@H](O)[C@]3(O)OC2` (stereo not given in full), the TGI was 9.67 µM.

On to `O=C(c1cccs1)C1NO[N+]([O-])=C1c1cccs1` (stereo not given), for which the GI50 is 3.71 µM and the TGI is 10.9 µM.

With `CN1c2ccccc2SC2C(c3ccccc3)=NOC21` (stereo not given), the TGI was above 100 µM.

As for `COc1ccc(C2=C(N3CCc4ccccc43)C(=O)NC2=O)cc1`, the GI50 is above 24 µM and the TGI was above 25 µM.

Regarding `O=[N+]([O-])c1ccc(-c2cc3c(Nc4ccc(Cl)c(C(F)(F)F)c4)ncnc3s2)cc1`, the GI50 is 2.61 µM and the TGI was above 100 µM.

In the case of `Cc1cc2c(cc1Cl)S/C(=C/C(=O)O)C(Nc1cccc3nsnc13)=NS2(=O)=O`, the GI50 was above 10.5 µM and the TGI is above 19.9 µM.

Take `COc1ccc(F)c(F)c1C(=O)c1cnc(NC2CCN(S(C)(=O)=O)CC2)nc1N`: the GI50 was 0.923 µM and the TGI was 7.73 µM.

On to `Nc1cc(-c2ccc(Cl)cc2)nn1-c1nnc(/C=C/c2ccco2)c(=O)[nH]1`, for which the GI50 was 4.11 µM and the TGI was above 55.7 µM.

The compound `Cc1c(C)c(CC(=O)N2CC2)c(C)c(C)c1CC(=O)N1CC1` showed a TGI of 65.8 µM.

In the case of `O=C1c2ccccc2-c2c1c1c(NCCCO)nc3ccccc3c1n2Cc1ccccc1`, the GI50 is 27.5 µM and the TGI was determined as 64.4 µM.

`CCCCCCCCCCCCCCCCCCOCC(COCCOCC[N+]1(CCCCCC(=O)[O-])CCCC1)Oc1ncccn1` (stereo not given): the TGI was 31.3 µM.

`CCOc1ccc(Nc2c3ccccc3nc3ccccc23)cc1`: the GI50 was 0.863 µM and 0.613 µM; the TGI was 7.56 µM and 6.1 µM.

Another assay deals with HCT-116 colon. Nature of the assay: inhibition of tumour cell growth, NCI panel, 48 h.
Turning to `O=C1/C(=C/c2ccc([N+](=O)[O-])cc2)COc2ccc(O)cc21`, the GI50 was 1.67 µM and the TGI is 3.43 µM.

As for `CC(C)Oc1ccc(C(=O)Cn2ccnc2)cc1-n1c(CN2CCN(C(=O)COc3ccc(Cl)cc3)CC2)nc2ccccc2c1=O`, the GI50 was 8.68 µM and the TGI came out at 24.9 µM.

`COc1cccc(COc2cc(-n3cnc4ccccc43)sc2C(N)=O)c1`: the GI50 was 12.8 µM and the TGI was above 25 µM.

`CCN(CC)c1ccc(/C=C/C2=[N+](C)c3ccccc3C2(C)C)c(C)c1`: the GI50 is below 0.02 µM and the TGI stood at 3.82 µM.

`C=C1C(=O)C23C(O)C1CC[C@H]2C12CCCC(C)(COC(C)=O)[C@H]1[C@H](O)[C@]3(O)OC2` (stereo not given in full): the TGI came out at 2.3 µM.

As for `O=C(c1cccs1)C1NO[N+]([O-])=C1c1cccs1` (stereo not given), the GI50 was 3.03 µM and the TGI is 10.2 µM.

Compound `CN1c2ccccc2SC2C(c3ccccc3)=NOC21` (stereo not given) showed a TGI of 60.7 µM.

`COc1ccc(C2=C(N3CCc4ccccc43)C(=O)NC2=O)cc1`: the GI50 was above 25 µM and the TGI was above 25 µM.

For the compound `O=[N+]([O-])c1ccc(-c2cc3c(Nc4ccc(Cl)c(C(F)(F)F)c4)ncnc3s2)cc1`, the GI50 was 1.51 µM and the TGI is above 100 µM.

With `Cc1cc2c(cc1Cl)S/C(=C/C(=O)O)C(Nc1cccc3nsnc13)=NS2(=O)=O`, the GI50 was 33.5 µM and the TGI was above 59.2 µM.

`COc1ccc(F)c(F)c1C(=O)c1cnc(NC2CCN(S(C)(=O)=O)CC2)nc1N`: the GI50 was 0.257 µM and 0.183 µM; the TGI was above 100 µM.

On to `Nc1cc(-c2ccc(Cl)cc2)nn1-c1nnc(/C=C/c2ccco2)c(=O)[nH]1`, for which the GI50 was 3.15 µM and the TGI amounted to 15.8 µM.

The compound `Cc1c(C)c(CC(=O)N2CC2)c(C)c(C)c1CC(=O)N1CC1` came in with a TGI of 28.5 µM.

Regarding `O=C1c2ccccc2-c2c1c1c(NCCCO)nc3ccccc3c1n2Cc1ccccc1`, the GI50 was 15.8 µM and the TGI is 35.1 µM.

As for `CCCCCCCCCCCCCCCCCCOCC(COCCOCC[N+]1(CCCCCC(=O)[O-])CCCC1)Oc1ncccn1` (stereo not given), the TGI worked out at 15.8 µM.

As for `CCOc1ccc(Nc2c3ccccc3nc3ccccc23)cc1`, the GI50 was 0.335 µM and 0.318 µM; the TGI is 1.32 µM and 2.81 µM.

The next assay relates to KM12 colon. Nature of the assay: inhibition of tumour cell growth, NCI panel, 48 h.
As for `O=C1/C(=C/c2ccc([N+](=O)[O-])cc2)COc2ccc(O)cc21`, the GI50 is 2.15 µM and the TGI is 5.25 µM.

Turning to `CC(C)Oc1ccc(C(=O)Cn2ccnc2)cc1-n1c(CN2CCN(C(=O)COc3ccc(Cl)cc3)CC2)nc2ccccc2c1=O`, the GI50 is 17 µM and the TGI was determined as 36.2 µM.

In the case of `COc1cccc(COc2cc(-n3cnc4ccccc43)sc2C(N)=O)c1`, the GI50 is 2.42 µM and the TGI was above 25 µM.

Turning to `CCN(CC)c1ccc(/C=C/C2=[N+](C)c3ccccc3C2(C)C)c(C)c1`, the GI50 is 0.0491 µM and the TGI was 1.36 µM.

`C=C1C(=O)C23C(O)C1CC[C@H]2C12CCCC(C)(COC(C)=O)[C@H]1[C@H](O)[C@]3(O)OC2` (stereo not given in full) had a TGI of 6.07 µM.

As to `O=C(c1cccs1)C1NO[N+]([O-])=C1c1cccs1` (stereo not given), the GI50 was 3.33 µM and the TGI came out at 12.1 µM.

`CN1c2ccccc2SC2C(c3ccccc3)=NOC21` (stereo not given) came in with a TGI above 100 µM.

As for `COc1ccc(C2=C(N3CCc4ccccc43)C(=O)NC2=O)cc1`, the GI50 was above 25 µM and the TGI was above 25 µM.

Turning to `O=[N+]([O-])c1ccc(-c2cc3c(Nc4ccc(Cl)c(C(F)(F)F)c4)ncnc3s2)cc1`, the GI50 is 1.42 µM and the TGI is above 100 µM.

Take `Cc1cc2c(cc1Cl)S/C(=C/C(=O)O)C(Nc1cccc3nsnc13)=NS2(=O)=O`: the GI50 was 50.6 µM and the TGI is above 65.3 µM.

As for `COc1ccc(F)c(F)c1C(=O)c1cnc(NC2CCN(S(C)(=O)=O)CC2)nc1N`, the GI50 was 0.402 µM and 0.306 µM; the TGI was above 29.8 µM.

Turning to `Nc1cc(-c2ccc(Cl)cc2)nn1-c1nnc(/C=C/c2ccco2)c(=O)[nH]1`, the GI50 was 4.05 µM and the TGI was above 56.6 µM.

The compound `Cc1c(C)c(CC(=O)N2CC2)c(C)c(C)c1CC(=O)N1CC1` came in with a TGI of 40.3 µM.

With `O=C1c2ccccc2-c2c1c1c(NCCCO)nc3ccccc3c1n2Cc1ccccc1`, the GI50 is 31.3 µM and the TGI is above 100 µM.

As for `CCCCCCCCCCCCCCCCCCOCC(COCCOCC[N+]1(CCCCCC(=O)[O-])CCCC1)Oc1ncccn1` (stereo not given), the TGI stood at 17.7 µM.

For the compound `CCOc1ccc(Nc2c3ccccc3nc3ccccc23)cc1`, the GI50 was 0.581 µM and 0.487 µM; the TGI was 9.39 µM and 4.52 µM.
